Source: patent US20070010556A1, “Thiophene derivatives as chk 1 inhibitors” (ASTRAZENECA AB, priority 2004, published 2007)

Biological target: T1, CHK1 kinase (Homo sapiens, UniProt O14757)
T1 construct: The kinase domain is expressed in baculovirus and purified by the GST tag; GST; made in house
T1 sequence (O14757 9-265 limits assumed): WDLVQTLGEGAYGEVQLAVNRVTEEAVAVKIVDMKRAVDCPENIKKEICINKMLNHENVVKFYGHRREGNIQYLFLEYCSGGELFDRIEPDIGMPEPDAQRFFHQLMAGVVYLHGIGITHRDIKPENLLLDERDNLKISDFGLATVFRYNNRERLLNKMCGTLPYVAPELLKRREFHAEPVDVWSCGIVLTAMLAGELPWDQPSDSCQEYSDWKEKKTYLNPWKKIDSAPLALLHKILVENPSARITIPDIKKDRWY
Assay: Checkpoint Kinase 1 Assay (Scintillation Proximity Assay)
Format: biochemical
Description: Checkpoint Kinase 1 Assay: This in vitro assay measures the inhibition of CHK1 kinase by compounds. The kinase domain is expressed in baculovirus and purified by the GST tag. Purified protein and biotinylated peptide substrate (Cdc25C) is then used in a 384 well automated Scintillation Proximity Assay (SPA). Specifically, peptide, enzyme and reaction buffer are mixed and aliquoted into a 384 well plate containing dilution series of compounds and controls. Cold and hot ATP are then added to initiate the reaction. After 2 hours, a SPA bead slurry, […] and EDTA are added to stop the reaction and capture the biotinylated peptide. Plates are then counted on a Topcount. Data is analyzed and IC50s determined for individual compounds.

Row | Structure (SMILES) | IC50 [nM]
1 | COc1ccc(F)cc1-c1cc(C(=O)N[C@H]2CCCCNC2)c(NC(N)=O)s1 [Example 97] | 0.14
2 | O=C(Nc1cnccn1)Nc1cc(-c2ccc(Cl)cc2)sc1C(=O)N[C@H]1CCCNC1 [Example 263, 5-(4-Chloro-phenyl)-3-(3-pyrazin-2-yl-ureido)-thiophene-2-carboxylic acid (S)-piperidin-3-ylamide] | 0.12
